Assay results as given in US11253460B2, “Cosmetic compositions” (Mary Kay Inc., priority 2013, dated 2022).

Key:
Assay type in all cases: cell-based
[1] = tested on: B16-F1 melanocytes; experiment: B16 Pigmentation Assay
Excerpt: B16 Pigmentation Assay: Melanogenesis is the process by which melanocytes produce melanin, a naturally produced pigment that imparts color to skin, hair, and eyes. Inhibiting melanogenesis is beneficial to prevent skin darkening and lighten dark spots associated with aging. This bioassay utilizes B16-F1 melanocytes (ATCC), an immortalized mouse melanoma cell line, to analyze the effect of compounds on melanogenesis. The endpoint of this assay is a spectrophotometric measurement of melanin production and cellular viability. B16-F1 melanocytes, can be cultivated in standard DMEM growth medium with 10% fetal bovine serum (Mediatech) at 37° C. in 10% CO2 and then treated with any one of the active ingredients, combination of ingredients, or compositions having said combinations disclosed in the specification for 6 days. Following incubation, melanin secretion was measured by absorbance at 405 nm and cellular viability was quantified.

[2] = tested on: TNF-α production by human epidermal keratinocytes; experiment: Tumor Necrosis Factor Alpha (TNF-α) Assay (ELISA)
Excerpt: Tumor Necrosis Factor Alpha (TNF-α) Assay: The prototype ligand of the TNF superfamily, TNF-α, is a pleiotropic cytokine that plays a central role in inflammation. Increase in its expression is associated with an up regulation in pro-inflammatory activity. This bioassay can be used to analyze the effect of any one of the active ingredients, combination of ingredients, or compositions having said combinations disclosed in the specification on the production of TNF-α by human epidermal keratinocytes. The endpoint of this assay can be a spectrophotometric measurement that reflects the presence of TNF-α and cellular viability. The assay employs the quantitative sandwich enzyme immunoassay technique whereby a monoclonal antibody specific for TNF-α has been pre-coated onto a microplate. […] Following a wash to remove any unbound antibody-enzyme reagent, a substrate solution can be added to the wells and color develops in proportion to the amount of TNF-α bound in the initial step using a microplate reader for detection at 450 nm. The color development can be stopped and the intensity of the color can be measured. […] Following incubation, cell culture medium can be collected and the amount of TNF-α secretion quantified using a sandwich enzyme linked immuno-sorbant assay (ELISA) from R&D Systems (#DTA00C).

[3] = tested on: IL-1α production by Human Epidermal Keratinocytes; experiment: IL-1α Assay (ELISA, cell culture supernates)
Method: IL-1α Assay: A quantitative sandwich enzyme immunoassay technique(ELISA) was used to measure IL-1α in cell culture supernates. A monoclonal antibody that is specific for IL-1α was pre-coated onto a microplate. Standards and treatment samples are then pipetted into the wells and any IL-1α present is bound by the immobilized antibody. After washing away any unbound substances, an enzyme-linked polyclonal antibody specific for IL-1α is added to the wells. Following a wash to remove any unbound antibody-enzyme reagent, a substrate solution is added to the wells and color develops in proportion to the amount of IL-1α bound which was secreted in response to the treatment.

| Molecule | Inhibits Melanogenesis with Mouse Melanocytes (B16-F1 Assay) [1] | Inhibit TNF-α Production by Human Epidermal Keratinocytes [2] | Inhibit IL-1α Production by Human Epidermal Keratinocytes (% inhibition) [3] |
| --- | --- | --- | --- |
| NC(=O)c1cccnc1 [Niacinamide] | (−28%) |  |  |
| Acetyl dipeptide-1 Cetyl Ester |  | 88% | 97% |
